Measurements as given in patent US9206186B2, “2-phenoxy- and 2-phenylsulfonamide derivatives with CCR3 antagonistic activity for the treatment of inflammatory or immunological disorders” (AXIKIN PHARMACEUTICALS, INC., priority 2003, dated 2015).
Structures can show the parent of a compound that is named as a salt.

Target: T1, Human CCR3 (Homo sapiens, UniProt P51677)
T1 construct: The cloned CCR3 cDNA was constructed with pcDNA3 vector and transfected into a K562 cell line; expressed in transfected cells
T1 sequence (P51677 1-355): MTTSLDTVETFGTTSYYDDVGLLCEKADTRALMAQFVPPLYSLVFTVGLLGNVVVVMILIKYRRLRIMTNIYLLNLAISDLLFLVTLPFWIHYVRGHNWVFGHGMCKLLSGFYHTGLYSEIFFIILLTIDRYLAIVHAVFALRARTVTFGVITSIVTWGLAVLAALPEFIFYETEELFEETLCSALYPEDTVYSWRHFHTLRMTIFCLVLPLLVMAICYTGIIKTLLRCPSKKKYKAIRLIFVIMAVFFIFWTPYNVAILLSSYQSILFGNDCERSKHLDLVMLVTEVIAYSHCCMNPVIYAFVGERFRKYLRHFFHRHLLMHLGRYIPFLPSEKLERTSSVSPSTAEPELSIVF
Test: Receptor binding assay (RBA), [125I]-eotaxin on human CCR3-transformed K562 cells
Details: compounds of about 40 to 90% purity, read-out: Activity grade CCR3
Protocol: [Determination of IC50 Values of Compounds in Receptor Binding Assay]
• Human CCR3-transformed K562 cells were used. The cloned CCR3 cDNA was constructed with pcDNA3 vector and transfected into a K562 cell line. The human CCR3-transformed K562 cells were maintained in RPMI-1640 (Cat.#22400-089, Life Technologies) supplemented with 10% FCS (Cat.#A-1115-L, Hyclone), 55 μM 2-mercaptoethanol (Cat.#21985-023, Life Technologies), 1 mM sodium pyruvate (Cat.#11360-070, Life Technologies), 100 units/ml of penicillin G and 100 μg/ml of streptomycin (Cat.#15140-122, Life Technologies), and 0.4 mg/ml of Geneticin (Cat.#10131-035, Life Technologies) (hereinafter called “culture medium”). Before the receptor binding assay, cells were pretreated with 5 mM sodium butyrate (Cat.#193-01522, Wako)-containing the culture medium (2×10^5 cells/ml) for 20-24 hours to increase the expression of CCR3. (2) Receptor Binding Assay • Butyrate-pretreated cells, suspended in binding buffer (25 mM HEPES pH 7.6, 1 mM CaCl2, 5 mM MgCl2, 0.5% BSA, 0.1% NaN3) at a cell density of 2×10^6 cells/ml, were added into 60 μl/well in the 96-well round bottom polypropylene plate (Cat.#3365, Costar). Compounds, diluted with the binding buffer (4-times higher concentration of the final concentration), were added into 30 μl/well in the polypropylene plate. [^125I]-labeled human eotaxin (Cat.#IM290, Amersham Pharmacia Biotech), diluted with the binding buffer at the concentration of 0.4 nM (final concentration; 0.1 nM), was added into 30 μl/well in the polypropylene plate. Total 120 μl/well of binding reaction mixture (60 μl/well of cell suspension, 30 μl/well of compound solution, and 30 μl/well of [^125I]-labeled eotaxin) were incubated in the polypropylene plate for 1 hour at room temperature after the incubation, 100 μl/well of the reaction mixture was transferred to a filtration plate (Cat.#MAFB-N0B, Millipore), and washed with the washing buffer (25 mM HEPES pH 7.6, 1 mM CaCl2, 5 mM MgCl2, 0.5% BSA, 0.1% NaN3, 0.5 M NaCl) twice. The 96-well filtration plate was pretreated with 100 μl/well of 0.5% polyethylenimine (Cat.#P-3143, Sigma) for 2-4 hours at room temperature and washed with the washing buffer twice before use. The non-specific binding was determined by parallel incubation in the presence of 500 nM of non-labeled eotaxin (Cat.#23209, Genzyme Techne). The radioactivities remained on the filter were measured by liquid scintillation counter (TopCount™, Packard) after an addition of 45 μl/well of scintillant (Microscint20, Cat.#6013621, Packard). The inhibition percent at each concentration of compound was calculated, and IC50 values were determined from the inhibition curve. [Determination of IC50 Values of Compounds in Calcium Mobilization Assay] (1) Cell • Human CCR3-transformed K562 cells were used. The human CCR3-transformed K562 cells were maintained in RPMI-1640 supplemented with 10% FCS, 55 μM 2-mercaptoethanol (Cat.#21985-023, Life Technologies), 1 mM sodium pyruvate, 100 units/ml of penicillin G and 100 μg/ml of streptomycin, and 0.4 mg/ml of Geneticin. Before the calcium mobilization assay, cells were pretreated with 5 mM sodium butyrate-containing the culture medium (2×10^5 cells/ml) for 20-24 hours to increase the expression of CCR3. (2) Calcium Mobilization Assay • Butyrate-pretreated cells were loaded with Fluo-3AM (Cat.#F-1242, Molecular Probes) in loading buffer (Hanks' solution Cat.#05906 Nissui, 20 mM HEPES pH 7.6, 0.1% BSA, 1 mM probenecid Cat.#P-8761 Sigma, 1 μM Fluo-3AM, 0.01% pluronic F-127 Cat.#P-6866 Molecular Probes) at a cell density of 1×10^7 cells/ml. Then, cells were washed with calcium assay buffer (Hanks' solution Cat.#05906 Nissui, 20 mM HEPES pH 7.6, 0.1% BSA, 1 mM Probenecid Cat.#P-8761 Sigma). The cell suspension (3.3×10^6 cells/ml) was added into 60 μl/well in the 96-well clear bottom black plate (Cat.#3904, Costar). […]

Row | Structure (SMILES) | IC50 [nM]
1 | N#Cc1ccc(Oc2cc(Cl)cc(Cl)c2)c(S(=O)(=O)N[C@H]2CN3CCC2CC3)c1 [Example 1-1, N—(R)-(+)-(1-aza-bicyclo[2.2.2]oct-3-yl)-5-cyano-2-(3,5-dichloro-phenoxy)-benzenesulfonamide] | < 100
2 | CN(C)CCN(CCN1C(=O)CCC1=O)S(=O)(=O)c1cc(C#N)ccc1Oc1cc(Cl)cc(Cl)c1 [Example 1-2, 5-cyano-2-(3,5-dichloro-phenoxy)-N-(2-dimethylamino-ethyl)-N-[2-(2,5-dioxo-pyrrolidin-1-yl)-ethyl]-benzenesulfonamide] | < 100
3 | N#Cc1ccc(Oc2cc(Cl)cc(Cl)c2)c(S(=O)(=O)N2CCN[C@@H](Cc3c[nH]c4ccccc34)C2)c1 [Example 1-3, 4-(3,5-dichloro-phenoxy)-3-[(3S)-(1H-indol-3-ylmethyl)-piperazine-1-sulfonyl]-benzonitrile] | < 100
4 | N#Cc1ccc(Oc2cc(Cl)cc(Cl)c2)c(S(=O)(=O)N2CCNCC2Cn2cncn2)c1 (stereo not drawn) [Example 1-4, 4-(3,5-dichlorophenoxy)-3-{[2-(1H-1,2,4-triazol-1-ylmethyl)-1-piperazinyl]sulfonyl}benzonitrile hydrochloride] | < 100
5 | N#Cc1ccc(Oc2cc(Cl)cc(Cl)c2)c(S(=O)(=O)N2CCCCC2)c1 [Example 1-5] | > 500
6 | N#Cc1ccc(Oc2cc(Cl)cc(Cl)c2)c(S(=O)(=O)N2CC3CCN(Cc4ccccc4)C3C2)c1 (stereo not drawn) [Example 1-6] | < 100
7 | CS(=O)(=O)NCC1CN(S(=O)(=O)c2cc(C#N)ccc2Oc2cc(Cl)cc(Cl)c2)CCN1 (stereo not drawn) [Example 1-7] | < 100
8 | CC(=O)NCC1CN(S(=O)(=O)c2cc(C#N)ccc2Oc2cc(Cl)cc(Cl)c2)CCN1 (stereo not drawn) [Example 1-8] | < 100
9 | CS(=O)(=O)NCC1CNCCN1S(=O)(=O)c1cc(C#N)ccc1Oc1cc(Cl)cc(Cl)c1 (stereo not drawn) [Example 1-9] | < 100
10 | CC(=O)NCC1CNCCN1S(=O)(=O)c1cc(C#N)ccc1Oc1cc(Cl)cc(Cl)c1 (stereo not drawn) [Example 1-10] | < 100
11 | N#Cc1ccc(Oc2cc(Cl)cc(Cl)c2)c(S(=O)(=O)N2CCC(N3C[C@H](O)[C@@H](O)C3)CC2)c1 [Example 1-11] | 100 to 500
12 | COC(=O)C1CN(S(=O)(=O)c2cc(C#N)ccc2Oc2cc(Cl)cc(Cl)c2)CCCN1 (stereo not drawn) [Example 1-12] | 100 to 500
13 | COC(=O)[C@@H]1C[C@H](N2CCCC2)CN1S(=O)(=O)c1cc(C#N)ccc1Oc1cc(Cl)cc(Cl)c1 [Example 1-13] | 100 to 500
14 | N#Cc1ccc(Oc2cc(Cl)cc(Cl)c2)c(S(=O)(=O)N2CC[C@H](NCCO)C2)c1 [Example 1-16] | < 100
15 | COC(=O)C1CNCCCN1S(=O)(=O)c1cc(C#N)ccc1Oc1cc(Cl)cc(Cl)c1 (stereo not drawn) [Example 1-22] | < 100
16 | N#Cc1ccc(Oc2cc(Cl)cc(Cl)c2)c(S(=O)(=O)N2CCNC[C@@H]2Cc2c[nH]c3ccccc23)c1 [Example 1-26] | < 100
17 | N#Cc1ccc(Oc2cc(Cl)cc(Cl)c2)c(S(=O)(=O)N2CCNCC2CN2C(=O)CCC2=O)c1 (stereo not drawn) [Example 1-27] | < 100

Row | Structure (SMILES) | IC50 [nM]
18 | CS(=O)(=O)NCC1CN(S(=O)(=O)c2cc(C#N)ccc2Oc2cc(Cl)cc(Cl)c2)CCCN1 (stereo not drawn) [Example 1-28] | < 100
19 | CS(=O)(=O)NCC1CNCCCN1S(=O)(=O)c1cc(C#N)ccc1Oc1cc(Cl)cc(Cl)c1.Cl (stereo not drawn) [Example 1-29] | < 100
20 | CC(=O)c1ccc(Oc2cc(Cl)cc(Cl)c2)c(S(=O)(=O)N2CCNCC2)c1 [Example 1-31] | < 100
21 | N#Cc1ccc(Oc2cc(Cl)cc(Cl)c2)c(S(=O)(=O)N[C@@H]2CN3CCC2CC3)c1 [Example 1-32] | < 100
22 | N#Cc1ccc(Oc2cc(Cl)cc(Cl)c2)c(S(=O)(=O)N2CCC(N3CCC[C@H]3C(=O)O)CC2)c1 [Example 1-33] | < 100
23 | CC(C)(O)[C@@H]1CCCN1C1CCN(S(=O)(=O)c2cc(C#N)ccc2Oc2cc(Cl)cc(Cl)c2)CC1 [Example 1-34] | < 100
24 | N#Cc1ccc(Oc2cc(Cl)cc(Cl)c2)c(S(=O)(=O)N2CCCCC2CN2CCC(O)C2)c1 (stereo not drawn) [Example 1-35] | 100 to 500
25 | N#Cc1ccc(Oc2cc(Cl)cc(Cl)c2)c(S(=O)(=O)N2CCNC(Cn3ncnn3)C2)c1 (stereo not drawn) [Example 1-36] | < 100
26 | Cl.N#Cc1ccc(Oc2cc(Cl)cc(Cl)c2)c(S(=O)(=O)N2CCNC(Cn3cncn3)C2)c1 (stereo not drawn) [Example 1-37] | < 100
27 | CCN1CCCN(S(=O)(=O)c2cc(C#N)ccc2Oc2cc(Cl)cc(Cl)c2)C(C(=O)OC)C1 (stereo not drawn) [Example 1-39] | 100 to 500
28 | N#Cc1ccc(Oc2cc(Cl)cc(Cl)c2)c(S(=O)(=O)N(CCN2CCCC2)C2CCCC2)c1 [Example 1-42] | 100 to 500
29 | N#Cc1ccc(Oc2cc(Cl)cc(Cl)c2)c(S(=O)(=O)N2CCNC(CN3C(=O)CCC3=O)C2)c1 (stereo not drawn) [Example 1-43] | < 100
30 | N#Cc1ccc(Oc2cc(Cl)cc(Cl)c2)c(S(=O)(=O)N2CCC(N3CCCC3)C(CN3C(=O)CCC3=O)C2)c1 (stereo not drawn) [Example 1-44] | < 100
31 | N#Cc1ccc(Oc2cc(Cl)cc(Cl)c2)c(S(=O)(=O)N2CCC(N3CCC[C@H]3CO)CC2)c1 [Example 1-45] | < 100
32 | N#Cc1ccc(Oc2cc(Cl)cc(Cl)c2)c(S(=O)(=O)N2CCC[C@H]2CN2CCC[C@H]2CO)c1 [Example 1-46] | < 100
33 | N#Cc1ccc(Oc2cc(Cl)cc(Cl)c2)c(S(=O)(=O)C2CCNCC2)c1 [Example 2-1, 4-(3,5-Dichloro-phenoxy)-3-(piperidine-4-sulfonyl)-benzonitrile] | > 500
